Test results: PMC6155272, “Chroman-4-One Derivatives Targeting Pteridine Reductase 1 and Showing Anti-Parasitic Activity” (Molecules : A Journal of Synthetic Chemistry and Natural …, 2017)

Key:
[1] = tested on: L. infantum (MHOM/BR/1972/BH46) intracellular amastigotes; experiment: Activity against L. infantum intramacrophage amastigotes (high-content imaging); assay type: cell-based, Leishmania infantum; details: Leishmania infantum; read-out: IC50 (reference compound for L. infantum)
Procedure: […] THP-1 cells were plated onto 384-well plates in Roswell Park Memorial Institute (RPMI) 1640 medium, Hyclone, GE Healthcare Life Sciences (Issaquah, WA, USA) containing 50 ng/mL phorbol 12-myristate 13-acetate (PMA, Sigma-Aldrich, Saint Louis, MS, USA), and incubated for 48 h. Then, 6 day-old promastigotes were added, at a ratio of 50 parasites per each THP-1 cell seeded earlier. After 24 h of infection, negative controls (0.5% DMSO), positive controls (10 μM amphotericin B) or compounds were added to the plate. Assay plates were incubated for 48 h, and then fixed with 4% paraformaldehyde and stained with Draq 5. The Operetta high-content automated imaging system was used to acquire images and the Harmony Software was optimized to quantify the host cell number, the infection ratio and the number of parasites per infected cell. The ratio between infected cells and total number of cells is then calculated, and defined as the Infection Ratio (IR). The raw data for IR values was normalized to negative—DMSO (mock)-treated infected cells—and positive (non-infected cells) controls to determine the normalized antiparasitic activity.

[2] = target: T1, Leishmania major pteridine reductase 1 (LmPTR1) (Leishmania major, UniProt Q01782); details: flavonols 1A–3A, cited from earlier work; for IC50: evaluated as in previous paper
T1 construct: made in house
T1 sequence (Q01782 1-288): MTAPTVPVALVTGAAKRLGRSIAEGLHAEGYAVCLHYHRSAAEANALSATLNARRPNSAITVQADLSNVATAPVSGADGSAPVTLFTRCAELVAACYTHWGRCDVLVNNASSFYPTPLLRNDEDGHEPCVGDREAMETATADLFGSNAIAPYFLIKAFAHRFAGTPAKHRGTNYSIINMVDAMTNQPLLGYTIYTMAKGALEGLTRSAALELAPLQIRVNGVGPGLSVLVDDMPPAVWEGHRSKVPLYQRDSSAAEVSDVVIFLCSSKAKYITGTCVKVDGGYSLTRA

[3] = target: T2, Trypanosoma brucei pteridine reductase 1 (TbPTR1) (Trypanosoma brucei brucei, UniProt O76290); details: flavonols 1A–3A, cited from earlier work; for IC50: evaluated as in previous paper
T2 construct: made in house
T2 sequence (O76290 1-268): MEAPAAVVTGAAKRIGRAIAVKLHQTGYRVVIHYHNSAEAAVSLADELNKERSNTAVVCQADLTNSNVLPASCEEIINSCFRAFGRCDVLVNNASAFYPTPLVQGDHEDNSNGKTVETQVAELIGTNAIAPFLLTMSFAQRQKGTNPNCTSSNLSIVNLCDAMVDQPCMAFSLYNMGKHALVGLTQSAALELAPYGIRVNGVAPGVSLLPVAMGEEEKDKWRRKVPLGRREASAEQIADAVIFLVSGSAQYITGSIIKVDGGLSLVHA

[4] = tested on: T. brucei bloodstream forms; experiment: Activity against T. brucei bloodstream forms (resazurin-based assay); assay type: cell-based, Trypanosoma brucei; details: Trypanosoma brucei; read-out: IC50 (reference compound for T. brucei)
Procedure: The efficacy of compounds against T. brucei bloodstream forms was evaluated using a modified resazurin-based assay previously described in literature.

[5] = target: T1, Leishmania major pteridine reductase 1 (LmPTR1); experiment: LmPTR1 enzyme reporter assay (cytochrome-c reduction, 550 nm); assay type: biochemical; details: read-out: % Inhibition LmPTR1 (50 μM)
Procedure: (§1) TbPTR1 and LmPTR1 were purified as reported in literature. The enzyme kinetic profile of each selected protein was characterized by a spectrophotometric assay. The experimental assay consists of enzyme kinetic reaction monitoring at 340 nm for a total time of 180 s. The enzyme kinetic activity was measured at steady-state concentration of 7,8-dihydro-L-biopterin (H2B) and NADPH substrates equal to 50 and 120 µM and varying the enzyme concentration in the 0.001–0.006 µM and 0.005–0.010–0.015–0.020–0.025–0.030 µM range for Lm- and TbPTR1, respectively. The resulting kcat values were equal to 0.68 (s^−1) and 7.2 (s^−1) for Tb- and LmPTR1, respectively. For both TbPTR1 and LmPTR1, the Km value evaluation assay for H2B- and NADPH-substrates was performed in the 0.3-0.6–0.9–1.2–2.4–4.8 µM and 3.0–6.0–12.0–40.0–90.0–190.0 µM concentrations range, respectively.
(§2) Compounds 1A–3A were evaluated as reported in our previous paper. The novel synthesized compounds 1–3 were tested towards TbPTR1 and LmPTR1 using the in vitro TbPTR1/LmPTR1 enzyme reporter assay. The experimental procedure consists of monitoring the non-enzymatic reduction reaction of cytochrome-c at 550 nm, related to the reduction reaction of H2B to tetrahydrobiopterin (H4B) by using NADPH as the cofactor. TbPTR1 and LmPTR1 enzyme activity was assayed in a buffer containing 20 mM sodium citrate (pH 6.0) in a final experimental volume equal to 600 µL. The final reaction mixture contained different substrates added in the following order: TbPTR1/LmPTR1 (0.018 µM/0.002 µM) in 20 mM Tris-HCl, glycerol 10% (v/v), pH 7.5; H2B at a final concentration equal to 0.3 µM; cytochrome-c (80 µM); Milli-Q water to a final volume of 600 µL and NADPH to a final concentration of 500 µM. Before the addition of NADPH, the reaction mixture was incubated for 10 min at 30 °C and 80 RPM. To allow the starting of the reaction, NADPH was added and the enzyme reaction was detected for a total time of 10 min at 30 °C, 550 nm. The inhibition profile characterization of compounds 1–3 was performed with a DU-640 spectrophotometer (Beckman Coulter, Brea, CA, USA). Each compound was assayed in duplicate against Tb/LmPTR1 target enzymes in the 0–10–25–50–80–150 µM concentrations range. At the different concentration values, the compounds were added to the reaction mixture (enzyme, H2B, cytochrome-c in 20 mM sodium citrate buffer and Milli-Q water) and incubated for 10 min at 30 °C, 80 RPM. The reaction was initiated by the addition of NADPH (500 µM) and monitored for 10 min at 30 °C, 550 nm. The absorbance values were processed by software analysis and transformed into the corresponding slopes. The percentages of inhibition and the IC50 values were determined.

[6] = target: T2, Trypanosoma brucei pteridine reductase 1 (TbPTR1); experiment: TbPTR1 enzyme reporter assay (cytochrome-c reduction, 550 nm); assay type: biochemical; details: read-out: % Inhibition TbPTR1 (50 μM), 50 μM; compounds 1–3 and control
Procedure: as §1, §2

[7] = target: the molecule itself; experiment: crystal structure; LmPTR1-NADP+ ternary complexes with compound 1 and with compound 3; hanging drop, 293 K, 12% PEG 4600, 100 mM sodium acetate pH 5.5, 120-160 mM calcium acetate; compounds soaked into pre-formed crystals; one homotetramer in the asymmetric unit
[8] = target: the molecule itself; experiment: crystal structure; TbPTR1-NADP+-compound 1 ternary complex; sitting drop, room temperature, 1.5-2.5 M sodium acetate, 0.1 M sodium citrate pH 5.0; compound soaked into pre-formed crystals; one homotetramer in the asymmetric unit

## CCCCCCCCCCCCCCCCOP(=O)([O-])OCC[N+](C)(C)C [miltefosine, reference compound]
[1]
  IC50: 2650 ± 400 nM

## O=c1c(O)c(-c2ccc(O)cc2)oc2ccc(O)cc12 [Compound 2A]
[2]
  % Inhibition LmPTR1 (50 μM): 10.8%
[3]
  % Inhibition TbPTR1 (50 μM): 2.6%

## N=C(N)c1ccc(OCCCCCOc2ccc(C(=N)N)cc2)cc1 [pentamidine, reference compound]
[4]
  IC50: 1.55 ± 0.24 nM

## O=c1c(O)c(-c2ccc(O)c(O)c2)oc2ccc(O)cc12 [Compound 3A]
[2]
  % Inhibition LmPTR1 (50 μM): 75.4%
  IC50: 35 µM
[3]
  % Inhibition TbPTR1 (50 μM): 53.1%
  IC50: 38 µM

## CCc1nc(N)nc(N)c1-c1ccc(Cl)cc1 [pyrimethamine, reference compound]
[5]
  inhibition at 50 µM: 100%
[6]
  inhibition at 50 µM: 100%

## O=c1c(O)c(-c2cccc(O)c2)oc2ccc(O)cc12 [Compound 1A]
[2]
  % Inhibition LmPTR1 (50 μM): 86.2%
  IC50: 12.5 µM
[3]
  % Inhibition TbPTR1 (50 μM): 96.1%
  IC50: 4.3 µM

B1: Leishmania major pteridine reductase 1 (enzyme)
chain: T1 sequence (Q01782 1-288)
notes: pteridine reductase 1 (PTR1) of Leishmania major; Crystallised with NADPH/NADP+ and soaked with compound 1 or 3 (small molecules); also called LmPTR1; PTR1; source: expressed and purified as reported in literature [14]
[7]
  stoichiometry N: 4

B2: Trypanosoma brucei pteridine reductase 1 (enzyme)
chain: T2 sequence (O76290 1-268)
modifications: oxo-cysteine at residue 168
notes: pteridine reductase 1 (PTR1) of Trypanosoma brucei; Crystallised with the cofactor NADP+ and soaked with compound 1 (small molecules); also called TbPTR1; PTR1; source: expressed and purified as reported in literature [14]
[8]
  stoichiometry N: 4
